By IC50 is commonly meant the midpoint of a concentration-inhibition curve. As a reminder, the pKa is the negative logarithm of the acid dissociation constant. For orientation: half-life means the time in which the quantity being followed falls by half. As a reminder, the Tmax is the time from dosing to the highest level.

The text below walks through data of ChEMBL document CHEMBL5030512 (J Med Chem, 2021).

The source made the active and inactive calls. The calls are words filed in the database; no cut-off is given here.

The nature of series [1]: Biodistribution in BALB/c mouse spleen at 9.5 mg/kg, ip measured after 1 hr. Type of series: ADME, organism-based. Particulars: in vivo.
The nature of series [2]: Biodistribution in BALB/c mouse stomach at 9.5 mg/kg, ip measured after 1 hr. Format: ADME, organism-based. Particulars: in vivo.
Series [3] is described as follows: Biodistribution in BALB/c mouse stomach at 50 mg/kg, ip measured after 1 hr. Particulars: in vivo. Format: ADME, organism-based.
A further series concerns NHDF. Description: Cytotoxicity against NHDF assessed as reduction in cell viability measured after 48 hrs by SRB assay. Type of series: cell-based. Particulars: Homo sapiens. In general terms: Sulforhodamine B stains cellular protein and so reports cell mass.
Series [4] can be described thus: Biodistribution in BALB/c mouse kidney at 9.5 mg/kg, ip measured after 1 hr. Format: ADME, organism-based. Particulars: in vivo.
For series [5], the system named is Colon cancer cell line. Description: Antitumour activity against human colorectal cancer cells xenografted in BALB/c mouse assessed as tumour suppression at 50 mg/kg, ip administered once every 3 days for 3 weeks. Type of series: functional, organism-based. (In general: A xenograft is tissue or cells of one species grown in another, often human tumour cells in immunodeficient mice.)

Series [6] in a line: Toxicity in BALB/c mouse xenografted with human colorectal cancer cells assessed as reduction in body weight at 50 mg/kg, ip administered once every 3 days for 3 weeks. Type of series: organism-based. Details: scale not given: the % may be the effect or the level left. Particulars: in vivo, 504 h.
Another series has as its system COS-7. Description: Inhibition of GLUT1 in African green monkey COS-7 cells assessed as reduction in 2-NBDG uptake at 50 to 100 uM incubated for 90 mins by fluorescence microplate reader analysis. Format: cell-based. Particulars: Chlorocebus aethiops, dose 50-100 µM.
Series [7] relates to HT-29. The experiment in a line: Cytotoxicity against human HT-29 cells assessed as reduction in cell viability measured after 48 hrs by SRB assay. Particulars: HT-29, 48 h. Type of series: functional, cell-based.
Series [8] relates to HT-29. Description: Cytotoxicity against human HT-29 cells assessed as reduction in cell viability treated with 5 mM GSH measured after 48 hrs in presence of 5-FU by SRB assay. Format: functional, cell-based. Particulars: HT-29, 48 h.
Series [9] concerns HT-29. Description: Cytotoxicity against human HT-29 cells assessed as reduction in cell viability measured after 48 hrs in presence of 5 mM GSH by SRB assay. Type of series: functional, cell-based. Particulars: HT-29, 48 h.
Series [10] has as its system HCT-116. The experiment in a line: Cytotoxicity against human HCT-116 cells assessed as reduction in cell viability measured after 48 hrs in presence of 5 mM GSH by SRB assay. Format: functional, cell-based. Particulars: HCT-116, 48 h.
Series [11] relates to HCT-116. Description: Cytotoxicity against human HCT-116 cells assessed as reduction in cell viability measured after 48 hrs by SRB assay. Type of series: functional, cell-based. Particulars: HCT-116, 48 h.
Series [12] relates to HT-29. Description: Cytotoxicity against human HT-29 cells assessed as reduction in cell viability measured after 48 hrs in presence of 5-FU by SRB assay. Format: functional, cell-based. Particulars: HT-29, 48 h.
In series [13] the test system is HCT-116. The experiment in a line: Cytotoxicity against human HCT-116 cells assessed as reduction in cell viability treated with 5 mM GSH measured after 48 hrs in presence of 5-FU by SRB assay. Format: functional, cell-based. Particulars: HCT-116, 48 h.
The subject of series [14] is HCT-116. Description: Cytotoxicity against human HCT-116 cells assessed as reduction in cell viability measured after 48 hrs in presence of 5-FU by SRB assay. Format: functional, cell-based. Particulars: HCT-116, 48 h.
Series [15] has as its system Colon cancer cell line. Description: Synergistic antitumour activity against human colorectal cancer cells xenografted in BALB/c mouse assessed as reduction in tumour size at 30 mg/kg, ip administered once every 3 days for 3 weeks in presence of 10 mg/kg 5-FU. Type of series: functional, organism-based.
The nature of series [16]: Dissociation constant, pKa of compound. Format: physicochemical.
The nature of series [17]: Stability in human plasma assessed as half life measured upto 48 hrs by RP-HPLC analysis. Format: ADME, cell-free.
A short description of series [18]: Stability of compound at pH >= 7. Type of series: physicochemical.
Series [19] in a line: Stability of compound at pH 4 to 5. Format: physicochemical. Particulars: buffer.
The nature of series [20]: Drug metabolism in BALB/c mouse assessed as release of 5-FU in blood at 50 mg/kg, iv measured after 2 hrs by UPLC-MS/MS analysis. Type of series: ADME, organism-based. Particulars: in vivo.
A short description of series [21]: Biodistribution in BALB/c mouse colon assessed as 5-FU release at 50 mg/kg, ip measured after 1 hr. Type of series: ADME, organism-based. Particulars: in vivo.
Series [22] in a line: Biodistribution in BALB/c mouse heart at 50 mg/kg, ip measured after 1 hr. Format: ADME, organism-based. Particulars: in vivo.
A short description of series [23]: Tmax in BALB/c mouse at 50 mg/kg, ip by LC-MS/MS analysis. Type of series: ADME, organism-based. Particulars: in vivo.
A short description of series [24]: Drug degradation in 5 uM GSH after 48 hrs. Particulars: read-out: Drug degradation. Format: ADME.
Series [25] is described as follows: Biodistribution in BALB/c mouse colon at 50 mg/kg, ip measured after 1 hr. Type of series: ADME, organism-based. Particulars: in vivo.
Series [26] in a line: Biodistribution in BALB/c mouse stomach assessed as 5-FU release at 50 mg/kg, ip measured after 1 hr. Type of series: ADME, organism-based. Particulars: in vivo.
Series [27] is described as follows: Drug metabolism in 5 mM GSH assessed as 5-FU release after 48 hrs. Type of series: ADME.
The nature of series [28]: Drug uptake in BALB/c mouse blood at 50 mg/kg, iv measured after 4 hrs by UPLC-MS/MS method. Type of series: ADME, organism-based. Particulars: in vivo.
A short description of series [29]: Biodistribution in BALB/c mouse kidney assessed as 5-FU release at 50 mg/kg, ip measured after 1 hr. Particulars: in vivo. Type of series: ADME, organism-based.
Series [30] in a line: Drug uptake in BALB/c mouse blood at 50 mg/kg, iv measured after 45 mins by UPLC-MS/MS method. Particulars: in vivo, 0.75 h. Format: ADME, organism-based.
A short description of series [31]: Drug uptake in BALB/c mouse blood at 50 mg/kg, iv measured after 30 mins by UPLC-MS/MS method. Type of series: ADME, organism-based. Particulars: in vivo, 0.5 h.
Series [32] is described as follows: Half life of the compound in 5 mM GSH. Format: physicochemical.
Series [33] in a line: Biodistribution in BALB/c mouse liver at 50 mg/kg, ip measured after 1 hr. Format: ADME, organism-based. Particulars: in vivo.

Take `O=c1[nH]cc(F)c(=O)[nH]1` [FLUOROURACIL]: the Drug uptake entry in [1], in series [2], in [3] and in series [4] was “Active” throughout. Also, the IC50 with NHDF was determined as 70.4 µM. For the same molecule, the outcome with Colon cancer cell line [5] was Active. Besides, the Activity in [6] is recorded as 10%.
As to `O=C(CCc1ccc(O)cc1)c1c(O)cc(O)cc1O[C@@H]1O[C@H](CO)[C@@H](O)[C@H](O)[C@H]1O`, the inhibition result in the series with COS-7 was “inactive”.
Regarding `O=C(CCc1ccc(O)cc1)c1c(O)cc(OCCOCCOCCS)cc1O[C@@H]1O[C@H](CO)[C@@H](O)[C@H](O)[C@H]1O`, the IC50 in the series on HT-29 [7] was greater than 100 µM; in the series with HT-29 [8], 8.58 µM; with HT-29 [9], greater than 100 µM; with HCT-116 [10] it was greater than 100 µM; in the series with HCT-116 [11], greater than 100 µM; in the series with HT-29 [12], 21 µM. For the same molecule, the figures for the IC50 with HCT-116 [13] and with HCT-116 [14] were 13.6 µM and 21.9 µM, respectively. Further, the inhibition result in the series on COS-7 is “inactive”.
Turning to `O=C(CCc1ccc(O)cc1)c1c(O)cc(OCCOCCOCCS)cc1O`, the IC50 in the series with HT-29 [7] was found to be 29.1 µM; with HT-29 [8] it was 3.03 µM; in the series on HT-29 [9], 24.2 µM; with HCT-116 [10], 15.9 µM; in the series on HCT-116 [11] it was 15.5 µM; in the series on HT-29 [12] it was 10.3 µM. Further, the figures for the half-inhibitory concentration (IC50) with HCT-116 [13] and with HCT-116 [14] were 8.73 µM and 10.4 µM, respectively. For the same molecule, in the series on Colon cancer cell line [15], the result was Active. Further, the inhibition result in the series on COS-7 was “inactive”.
With `O=C(CCCSSCCOCCOCCOc1cc(O)c(C(=O)CCc2ccc(O)cc2)c(O[C@@H]2O[C@H](CO)[C@@H](O)[C@H](O)[C@H]2O)c1)OCn1cc(F)c(=O)[nH]c1=O`, the IC50 in the series on HT-29 [7] was determined as 59.8 µM; with HT-29 [9] it was 8 µM; with HCT-116 [10], 23.8 µM; in the series on HCT-116 [11], 54.9 µM.
The corresponding values for `O=C(CCCCCN1C(=O)CC(SCCOCCOCCOc2cc(O)c(C(=O)CCc3ccc(O)cc3)c(O[C@@H]3O[C@H](CO)[C@@H](O)[C@H](O)[C@H]3O)c2)C1=O)OCn1cc(F)c(=O)[nH]c1=O` (some centres not stated) are greater than 100 µM, 93.6 µM, greater than 100 µM and 97.4 µM.
With `O=C(CCCc1cn(CCOCCOCCOc2cc(O)c(C(=O)CCc3ccc(O)cc3)c(O[C@@H]3O[C@H](CO)[C@@H](O)[C@H](O)[C@H]3O)c2)nn1)OCn1cc(F)c(=O)[nH]c1=O`, the IC50 in the series with HT-29 [7] and with HCT-116 [11] was greater than 100 µM each time.
For the molecule `O=C(CCCCCN1C(=O)CC(SCCOCCOCCOc2cc(O)c(C(=O)CCc3ccc(O)cc3)c(O)c2)C1=O)OCn1cc(F)c(=O)[nH]c1=O` (configuration not stated), the IC50 with HT-29 [7] amounted to 43.7 µM; in the series with HT-29 [9] it was 86.9 µM; with HCT-116 [10], 82.8 µM; in the series on HCT-116 [11], 75 µM. The pKa in series [16] was found to be 8.5. For the same molecule, the half-life in series [17] was 0.8 h.
As to `O=C(CCCc1cn(CCOCCOCCOc2cc(O)c(C(=O)CCc3ccc(O)cc3)c(O)c2)nn1)OCn1cc(F)c(=O)[nH]c1=O`, the IC50 is 85 µM in the series with HT-29 [7] and greater than 100 µM in the series on HCT-116 [11]. Besides, the figures for the Stability entry in series [18] and in [19] were “Unstable” and “Stable”, respectively. The pKa in series [16] was determined as 8.5. Further, the half-life in [17] is 3.6 h.
On to `O=C(CCCSSCCOCCOCCOc1cc(O)c(C(=O)CCc2ccc(O)cc2)c(O)c1)OCn1cc(F)c(=O)[nH]c1=O`, for which the Drug metabolism result is reported as “Metabolite_Detected” in [20] and “Dose-Dependent Effect” in series [27]. For the same molecule, the Drug uptake result in [21], in [22], in series [3], in [25], in series [26] and in series [28] was “Active” in each case. Besides, the Drug uptake result in [29] is listed as “Active”; in [30], “Active”; in series [31], “Not Active”; in series [33] it was “Active”. Besides, the IC50 in the series on HT-29 [7] was determined as 19.6 µM; in the series with HT-29 [9] it was 3.8 µM; with NHDF, 90 µM; in the series with HCT-116 [10] it was 10.5 µM; in the series with HCT-116 [11], 21.2 µM. Further, in series [23], the Tmax is 0.75 h. In addition, the degraded at 48 h in [24] came to 30%. The outcome in the series with Colon cancer cell line [5] was Active. Besides, the Activity result in series [6] was “Non-Toxic”. For the same molecule, the half-life in series [17] is 13 h. For the same molecule, in series [32], the t1/2 amounted to 4 h.
